Data on 4 compounds can be found in article PMC7497412 (RSC Advances, 2020).

Holding throughout (assay): microbe, parasite or virus in culture
Holding throughout (format): cell-based

One assay relates to M. tb V2475/MDR. The conditions noted are these: Mycobacterium tuberculosis, read-out: M. tb MIC V2475/MDR.
Another assay deals with M. tb KZN494/MDR. The note with it: Mycobacterium tuberculosis, read-out: M. tb MIC KZN494/MDR.
A further assay has as its system M. tb R506/XDR. The note with it: Mycobacterium tuberculosis, read-out: M. tb MIC R506/XDR.
The subject of the next assay is M. tb TF274/XDR. The conditions noted are these: Mycobacterium tuberculosis, read-out: M. tb MIC TF274/XDR.

≈ marks a conversion by molar mass, not a printed value.

For the compound `O=C(NC12CC3CC(CC(C3)C1)C2)c1cc(=O)c2c(Br)cccc2[nH]1` [8i, N-(1-Adamantanyl)-5-bromo-4-oxo-1,4-dihydroquinoline-2-carboxamide], the MIC with M. tb V2475/MDR is 9.97 µM (≈ 4 µg/mL); with M. tb KZN494/MDR, 9.97 µM (≈ 4 µg/mL); in the assay on M. tb R506/XDR, 4.98 µM (≈ 2 µg/mL); in the assay with M. tb TF274/XDR, 4.98 µM (≈ 2 µg/mL).
Consider `O=C(NC1CCCCCCC1)c1ccc2ccccc2c1` [13c, N-Cyclooctyl-2-naphthamide], for which the MIC is 7.11 µM (≈ 2 µg/mL) with M. tb V2475/MDR, 7.11 µM (≈ 2 µg/mL) in the assay with M. tb KZN494/MDR, 3.55 µM (≈ 0.999 µg/mL) in the assay with M. tb R506/XDR and 3.55 µM (≈ 0.999 µg/mL) in the assay with M. tb TF274/XDR.
For the compound `O=C(NC12CC3CC(CC(C3)C1)C2)c1ccc2ccccc2c1` [13d, N-(1-Adamantanyl)-2-naphthamide], the MIC with M. tb V2475/MDR is 6.55 µM (≈ 2 µg/mL); with M. tb KZN494/MDR it was 6.55 to 13.1 µM (≈ 2 to 4 µg/mL); in the assay with M. tb R506/XDR it was 3.27 µM (≈ 0.999 µg/mL); in the assay on M. tb TF274/XDR it was 3.27 µM (≈ 0.999 µg/mL).
In the case of `O=C(Nc1nc(-c2ccc(Cl)cc2Cl)cs1)C12CC3CC(CC(C3)C1)C2` [18b, N-(4-(2,4-Dichlorophenyl)thiazol-2-yl)adamantane-1-carboxamide], the MIC in the assay on M. tb V2475/MDR was 19.6 µM (≈ 8 µg/mL); with M. tb KZN494/MDR it was 9.82 µM (≈ 4 µg/mL); in the assay on M. tb R506/XDR it was 4.91 to 9.82 µM (≈ 2 to 4 µg/mL); in the assay with M. tb TF274/XDR, 4.91 µM (≈ 2 µg/mL).
